Earlier results in patent US20100317636A1, “REDUCING THE RISK OF CHRONIC LUNG DISEASE IN INFANTS” (China Medical University, a Taiwan corporation, priority 2006, published 2010).

Tests used:
[1] = Ryrfeldt et al. (1982)

degradation in the liver [1]: rapidly degraded | solubility in chloroform (chloroform): freely soluble | solubility in ethanol (ethanol): sparingly soluble | solubility in heptane (heptane): practically insoluble | solubility in water (water): practically insoluble
SMILES: CCCC1O[C@@H]2C[C@H]3[C@@H]4CCC5=CC(=O)C=C[C@]5(C)[C@H]4[C@@H](O)C[C@]3(C)[C@]2(C(=O)CO)O1 (stereo partly drawn) [Budesonide, 16 alpha, 17 alpha-(22R,S)-propylmethylenedioxypregna-1,4-diene-11 beta, 21-diol-3,20-dione]
